This passage reports IC50 results from US20250367173A1, “ECTONUCLEOTIDE PYROPHOSPHATASE-PHOSPHODIESTERASE-1 INHIBITORS AND PHARMACEUTICAL COMPOSITIONS COMPRISING THE SAME” (LigaChem Biosciences Inc., priority 2022, published 2025).

For test [1], the target named is T1, ENPP-1 (Homo sapiens, UniProt P22413).
T1 construct: purchased Biovendor RD172124100
T1 sequence (P22413 1-925): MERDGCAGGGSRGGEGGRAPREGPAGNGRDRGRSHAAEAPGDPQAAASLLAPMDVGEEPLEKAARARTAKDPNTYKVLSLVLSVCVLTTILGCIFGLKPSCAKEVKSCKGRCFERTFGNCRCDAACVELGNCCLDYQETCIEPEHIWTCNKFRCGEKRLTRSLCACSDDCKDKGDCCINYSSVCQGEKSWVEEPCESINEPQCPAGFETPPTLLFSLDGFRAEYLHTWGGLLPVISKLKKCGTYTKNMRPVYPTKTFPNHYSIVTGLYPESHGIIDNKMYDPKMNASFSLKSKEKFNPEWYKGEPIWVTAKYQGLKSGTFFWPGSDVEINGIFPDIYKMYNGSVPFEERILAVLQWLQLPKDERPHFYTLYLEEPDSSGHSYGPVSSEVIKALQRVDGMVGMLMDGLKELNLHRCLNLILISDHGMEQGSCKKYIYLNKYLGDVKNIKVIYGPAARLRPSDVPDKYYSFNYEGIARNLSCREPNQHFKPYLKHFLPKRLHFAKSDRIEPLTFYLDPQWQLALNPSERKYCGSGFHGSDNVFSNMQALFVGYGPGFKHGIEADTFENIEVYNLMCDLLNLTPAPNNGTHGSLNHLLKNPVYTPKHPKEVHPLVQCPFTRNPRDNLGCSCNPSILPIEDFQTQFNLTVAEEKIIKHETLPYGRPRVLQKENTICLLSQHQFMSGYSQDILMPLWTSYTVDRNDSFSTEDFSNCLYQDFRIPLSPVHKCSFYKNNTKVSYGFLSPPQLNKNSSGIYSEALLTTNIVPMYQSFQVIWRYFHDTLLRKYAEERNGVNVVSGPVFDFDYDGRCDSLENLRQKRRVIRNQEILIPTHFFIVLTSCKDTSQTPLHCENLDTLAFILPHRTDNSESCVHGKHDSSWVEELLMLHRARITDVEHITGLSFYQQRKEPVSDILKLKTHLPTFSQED
In words: ENPP-1 enzyme assay with pNP-TMP substrate. Particulars: 12.5 ng ENPP-1, 720 μM substrate pNP-TMP, pH 9.0, 37° C., 60 minutes, absorbance 405 nm; average IC50. Type of test: biochemical. How it is done: In order to measure the ENPP-1 inhibitory activity of the compounds according to the present disclosure, the following tests were performed.
ENPP-1 hydrolyzes a variety of substrates, including phosphodiester bonds of nucleotides and nucleotide sugars and pyrophosphate bonds of nucleotides and nucleotide sugars. p-Nitrophenyl 5′-thymidine monophosphate (p-Nph-5′-TMP) is an artificial substrate for 5′-adenosine monophosphate (AMP), which is hydrolyzed by the human recombinant ENPP-1 enzyme. In the above reaction, ENPP-1 enzymatic activity is monitored through the formation of yellow p-nitrophenolate, which absorbs at 405 nm.
First, the reaction mixture contains 100 mM Tris-HCl (pH 9.0), 150 mM NaCl, […], and 1% DMSO. Serially diluted ENPP-1 inhibitors (test compound concentrations ranging from 10 μM to 0.5 nM) are reacted with 12.5 ng of ENPP-1 (Biovendor, catalog number RD172124100) and 720 μM substrate pNP-TMP at 37° C. for 60 minutes. All assays include a DMSO control without ENPP-1 inhibitor that gives maximum absorbance.
After 60 minutes of this reaction, the […] is measured using an Epoch™ Microplate Spectrophotometer (BioTek Instruments Inc.). Inhibition (%) is calculated using the following formula: Sample OD405 nm/Max OD405 nm×100%. % residual ENPP-1 enzyme activity versus IC50 values for ENPP-1 inhibitor concentrations were determined by fitting inhibition curves using the 4-parameter method of GraphPad Prism® software [GraphPad version 9.3.1 for Windows, GraphPad Software, La Jolla California USA, www.graphpad.com].

In test [2] the target is T1, ENPP-1. Description: ENPP-1 enzyme assay with cGAMP substrate. Type of test: biochemical. Particulars: 200 pM ENPP-1, 10 μM substrate 2′3′-cGAMP, pH 7.4, 37° C., 30 minutes, Transcreener AMP2/GMP2 kit; average IC50. Here is the method:
2′3′-cGAMP is a natural substrate specifically hydrolyzed by ENPP-1, and produces 5′-adenosine monophosphate (AMP) and 5′-guanosine monophosphate (GMP). AMP and GMP produced from the reaction are monitored for ENPP-1 enzyme activity through an AMP^2/GMP^2 ENPP-1 Assay kit (Bellbrook Labs, catalog number 3015).
First, the reaction mixture contains 25 mM Tris-HCl (pH 7.4), 5 mM MgCl2, 0.01% Brij-35, and 1% DMSO. Serially diluted ENPP-1 inhibitors (test compound concentrations ranging from 10 μM to 0.5 nM) are reacted with 200 pM ENPP-1 (Biovendor, catalog number RD172124100) and 10 μM substrate 2′3′-cGAMP at 37° C. for 30 minutes. All assays include a DMSO control without ENPP-1 inhibitor that provides maximal AMP and GMP production. After 30 minutes of this reaction, AMP and GMP production is detected as a measure of ENPP-1 enzymatic activity using the Transcreener® AMP^2/GMP^2 ENPP-1 Assay kit. The detection reagent is a reagent containing 16 nM AMP^2/GMP^2 Antibody-Tb, 25 mM Tris-HCl and 60.1 nM AMP/GMP HiLyte647 Tracer, which is added by 5 μl, mixed well, and incubated at 25° C. for 2 hours.
The […] signal is measured using a SPARK Cyto plate reader (Tecan). Inhibition (%) is calculated using the following formula: (Max 615:665 ratio-615:665 ratio)/Max 615:665 ratio×100%. % residual ENPP-1 enzyme activity versus IC50 values for ENPP-1 inhibitor concentrations were determined by fitting inhibition curves using the 4-parameter method of GraphPad Prism® software [GraphPad version 9.3.1 for Windows, GraphPad Software, La Jolla California USA, www.graphpad.com].

For `COc1ccc2c(c1)c1ncccc1n2Cc1ccc(S(N)(=O)=O)cc1Cl` [Compound 16, 3-chloro-4-((8-methoxy-5H-pyrido[3,2-b]indol-5-yl)methyl)benzenesulfonamide], the concentration for half-maximal inhibition (IC50) at ENPP-1 [1] and against ENPP-1 [2] was less than 1000 nM throughout.

For the molecule `COc1ccc2c(c1)c1ncccc1n2Cc1ccc(S(C)(=N)=O)cc1OC` (stereo not drawn) [Compound 19, imino (3-methoxy-4-((8-methoxy-5H-pyrido[3,2-b]indol-5-yl)methyl)phenyl)(methyl)-l6-sulfanone], the half-maximal inhibitory concentration (IC50) on ENPP-1 [1] and on ENPP-1 [2] was less than 1000 nM in each case.

`COc1ccc2c3c(=O)[nH]ccc3n(Cc3ccc(S(N)(=O)=O)cc3)c2c1` [Compound 43, 4-((7-methoxy-1-oxo-1,2-dihydro-5H-pyrido[4,3-b]indol-5-yl)methyl)benzenesulfonamide]: the IC50 against ENPP-1 [1] is less than 1000 nM; at ENPP-1 [2], 1000 to 10000 nM.

On to `COc1ccc2c(c1)c1ncccc1n2Cc1ccc(S(N)(=O)=O)cc1F` [Compound 15, 3-fluoro-4-((8-methoxy-5H-pyrido[3,2-b]indol-5-yl)methyl)benzenesulfonamide], for which the IC50 against ENPP-1 [1] and at ENPP-1 [2] was less than 1000 nM throughout.

`COc1cc2c3ncccc3n(Cc3ccc(S(=N)(=O)C4CC4)cc3)c2cc1F` (single isomer, unassigned) [Compound 56b, cyclopropyl (4-((7-fluoro-8-methoxy-5H-pyrido[3,2-b]indol-5-yl)methyl)phenyl) (imino)-l6-sulfanone] came in with an IC50 against ENPP-1 [2] of less than 1000 nM.

Turning to `COc1ccc2c(c1)c1c(n2Cc2ccc(S(N)(=O)=O)cc2)CNC(C)C1` (stereo not drawn) [Compound 33, 4-((6-methoxy-3-methyl-1,2,3,4-tetrahydro-9H-pyrido[3,4-b]indol-9-yl)methyl)benzene sulfonamide], the IC50 at ENPP-1 [1] is more than 10000 nM.

`COc1cc2c3ncccc3n(Cc3ccc(S(=N)(=O)C4CC4)cc3)c2cc1F` (single isomer, unassigned) [Compound 56a, cyclopropyl (4-((7-fluoro-8-methoxy-5H-pyrido[3,2-b]indol-5-yl)methyl)phenyl) (imino)-l6-sulfanone]: the 50% inhibitory concentration (IC50) against ENPP-1 [1] is less than 1000 nM.

`COc1ccc2c(c1)c1ncccc1n2Cc1ccc(S(C)(=N)=O)cc1` (single isomer, unassigned) [Compound 10b, imino (4-((8-methoxy-5H-pyrido[3,2-b]indol-5-yl)methyl)phenyl)(methyl)-l6-sulfanone] had an IC50 against ENPP-1 [1] of less than 1000 nM.

Regarding `COc1cc2c3ncccc3n(Cc3ccc(S(C)(=N)=O)cc3)c2cc1F` (single isomer, unassigned) [Compound 30b, (4-((7-fluoro-8-methoxy-5H-pyrido[3,2-b]indol-5-yl)methyl)phenyl)(imino)(methyl)-l6-sulfanone], at ENPP-1 [1], the IC50 was less than 1000 nM.

Regarding `Cc1ccc2c(c1)c1c(n2Cc2ccc(S(N)(=O)=O)cc2)CCCN1` [Compound 40, 4-((8-methyl-1,2,3,4-tetrahydro-5H-pyrido[3,2-b]indol-5-yl)methyl)benzenesulfonamide], on ENPP-1 [1], the concentration for half-maximal inhibition (IC50) is 1000 to 10000 nM.

Regarding `COc1ccc2c(c1)c1ncccc1n2Cc1ccc(S(C)(=N)=O)cc1C(F)(F)F` (stereo not drawn) [Compound 55, imino (4-((8-methoxy-5H-pyrido[3,2-b]indol-5-yl)methyl)-3-(trifluoromethyl)phenyl)(methyl)-l6-sulfanone], the IC50 at ENPP-1 [1] is more than 10000 nM.

`COc1ccc2c(c1)c1c(n2Cc2cccc(S(N)(=O)=O)c2)CCCN1` [Compound 39, 3-((8-methoxy-1,2,3,4-tetrahydro-5H-pyrido[3,2-b]indol-5-yl)methyl)benzenesulfonamide] came in with a half-inhibitory concentration (IC50) against ENPP-1 [1] of more than 10000 nM.

As to `COc1ccc2c(c1)c1cnncc1n2Cc1ccc(S(N)(=O)=O)cc1` [Compound 50, 4-((8-methoxy-5H-pyridazino[4,5-b]indol-5-yl)methyl)benzenesulfonamide], the concentration for half-maximal inhibition (IC50) on ENPP-1 [1] lay within 1000 to 10000 nM.

The molecule `COc1ccc2c(c1F)c1ncccc1n2Cc1ccc(S(N)(=O)=O)cc1` [Compound 54, 4-((9-fluoro-8-methoxy-5H-pyrido[3,2-b]indol-5-yl)methyl)benzenesulfonamide] yielded a half-maximal inhibitory concentration (IC50) against ENPP-1 [2] of less than 1000 nM.

As a reminder, the IC50 is the concentration that gives 50% inhibition. Read a high IC50 as weaker potency.
